# Experimental data: patent US20150045313A1, “Ectoparasiticidal Methods and Formulations” (Eli Lilly and Company, priority 2009, published 2015)
# What was measured:
# [1] = test system: Lone Star Tick (Amblyomma americanum); assay: Cattle Ectoparasiticide Test, single dose whole-body spray against lone star tick; type: in vivo
# Text: Cattle Ectoparasiticide Test (CET)/Horn Fly (Haematobia irritans) and/or Adult Tick (Amblyomma americanum): Cattle are housed in environmentally controlled rooms, 1 or 2 animals per room that have screened doors and ventilation system to prevent fly escape. Following treatment application, a defined number of horn flies are released into each room (typically at or above economic threshold of 200 flies per animal). After defined periods of time, the numbers of live horn flies remaining on animals are enumerated. If a combination horn fly and tick experiment is conducted, adult lone star ticks are placed into surgical stockinette enclosures that are glued onto the backs of cattle. Cattle are restrained in a modified head gate within environmentally controlled rooms. Horn flies may be enumerated, followed by determination of the numbers of dead ticks inside of containment units. Typically there are 2 containment units per animal and at least 2 animals per treatment group.
# A) Single Dose Efficacy Testing and Comparison of Spinetoram with Elector against Lone Star Tick (Amblyomma americanum) Infestations on Cattle. Technical spinetoram was formulated as a 25 g/L suspension concentrate using the same formulatin components as found in Elector. Test material was applied to animals as a whole-body topical spray. Total of two animals per treatment group; each animal harbored ticks inside of 3 containment units (n=3 per animal or n=6 per treatment group). Concentrates (25 g/L) diluted in water; treatment level equivalent to marketed rate for Elector (0.5 g AI per animal).
# [2] = test system: Boophilus annulatus; assay: Whole-body spray treatment of Boophilus annulatus infestations on cattle; type: in vivo
# Procedure: C) Efficacy Testing and comparison of topically applied spinetoram with spinosad for the treatment of Boophilus annulatus infestations on cattle. Technical spinetoram and technical spinosad both formulated as 25 g/L suspension concentrate formulations similar to commercial Elector. Stability assays (HPLC and LPT bioassays) were conducted to confirm potency over extended periods of time (5 weeks) at cool and shelf-temperatures. Cattle were pre-infested 21 d prior to treatment with larval-stage B. annulatus ticks resulting the presence of very high numbers of all three life-stages of this tick at the time of treatment. Test materials were diluted to 0.025% (250 ppm) and applied to cattle as whole-body topical sprays in a volume of 10 L per animal. There were a total of six animals per treatment group (n=6). Animals were housed in covered stalls under ambient conditions of temperature and humidity. Engorged, detached adult female ticks were retrieved from animals in each stall on a daily basis. Egg masses were weighed and eggs were set for hatching to assess viability. Efficacy was measured in terms of total numbers of female ticks per animal and index of fecundity (IF).
# Means were tested by General Linear Model (GLM), 1-way ANOVA. Differences (P<0.05) among means were separated using Tukey's all pairwise comparison. Means within the same column followed by different letters were significant at the P<0.05 level.
# Means were tested by General Linear Model (GLM), 2-way ANOVA with parasitic life stage and treatment group as main effects. NS denotes not significant.
# [3] = cattle, 0.025% AI whole-body spray, mean ± SD
substance,measurement,setting,value
Spinetoram,"percent tick reduction, 2 hr","[1]; cattle, whole-body spray 0.5 g AI per animal, Day 1, 2 hr",0%
same,"percent tick reduction, 6 hr","[1]; cattle, whole-body spray 0.5 g AI per animal, Day 1, 6 hr",0%
same,"percent tick reduction, 10 hr","[1]; cattle, whole-body spray 0.5 g AI per animal, Day 1, 10 hr",0%
same,"percent tick reduction, 24 hr","[1]; cattle, whole-body spray 0.5 g AI per animal, Day 2, 24 hr",0%
same,"percent tick reduction, 48 hr","[1]; cattle, whole-body spray 0.5 g AI per animal, Day 3, 48 hr",8.14%
same,"percent tick reduction, 72 hr","[1]; cattle, whole-body spray 0.5 g AI per animal, Day 4, 72 hr",8.14%
same,"percent tick reduction, 144 hr","[1]; cattle, whole-body spray 0.5 g AI per animal, Day 7, 144 hr",46.67%
same,ET50,"[1]; speed of kill, adult lone star ticks on cattle, 0.5 g AI per animal",148.2 h
same,activity (potency and speed of kill) compared to Elector,[1]; topically to cattle at 0.5 g/animal,equivalent activity
same,initial/knockdown activity against B. annulatus,"[2]; cattle, 0.025% AI",poor
same,Number ♀♀ Ticks per Calf,[2]; [3],2405 ± 306 a
same,Total Index of Fecundity (IF),[2]; [3],287 ± 35.4 a
same,Percentage Control of the IF,"[2]; cattle, 0.025% AI whole-body spray, therapeutic efficacy",28.0 ± 8.9 a %
same,"Percentage control, Adult","[2]; parasitic life stage adult, 0.025% AI",17.2 ± 25.0%
same,"Percentage control, Larval","[2]; parasitic life stage larva, 0.025% AI",38.6 ± 10.6%
same,"Percentage control, Nymph","[2]; parasitic life stage nymph, 0.025% AI",31.6 ± 20.8%
same,"residual efficacy, mean percentage control of the IF, Week 1",[2]; ticks infested as larvae Week 1 after treatment,95.3 ± 3.3%
same,"residual efficacy, mean percentage control of the IF, Week 2",[2]; ticks infested as larvae Week 2 after treatment,96.7 ± 2.3%
same,"residual efficacy, mean percentage control of the IF, Week 3",[2]; ticks infested as larvae Week 3 after treatment,89.3 ± 8.0%
same,"residual efficacy, mean percentage control of the IF, Week 4",[2]; ticks infested as larvae Week 4 after treatment,80.4 ± 11.5%
